“Also recorded” adds a separate entry of the source.
Experiments:
Type in all cases: cell-based
human whole blood = test: Cytokine/chemokine induction in human whole blood
[1] = tested on: human peripheral blood mononuclear cells (PBMCs); test: Multiplexed immunoassays for human cytokines in PBMCs
Procedure: (§1) Example 5: High-throughput screens in porcine blood: Curated compound collections were obtained from the Institute for Therapeutics Discovery & Development at the University of Minnesota. Compound transfers from source (80 nL of 10 mM stocks) to assay plates were performed using an Echo 550 acoustic liquid handler (Labcyte, Sunnyvale, Calif.). For most libraries, a target final concentration of 10 μM of compound (in a final volume of 80 μL for the assay described below) was achieved. Compound plates were hermetically sealed and stored at −80° C. until used. Fresh, heparin-anticoagulated porcine blood from healthy animals were obtained under USDA supervision from Midwest Research Swine, LLC (Glencoe, Minn.). 80 μL of hematocrit-enriched porcine blood (low-speed centrifugation, followed by resuspension in DMEM supplemented with 10% fetal bovine serum) was added to compound plates and incubated for 15 h. The following day, the plates were briefly centrifuged (100 g, 10 min), and supernatants were transferred using an automated ViaFlow 384 transfer device (Integra Biosciences Corp., Hudson, N.H.) to assay plates containing of 10^6 cells/mL of each of the following NF-κB/secreted alkaline phosphatase reporter cells suspended in HEK-Blue Detection Media: human IFN-α/β, human IFN-γ, human TNF-α/IL-1β (InvivoGen, San Diego, Calif.). NF-κB translocation was assayed spectrophotometrically using an alkaline phosphatase-specific chromogen (present in HEK-detection medium as supplied by InvivoGen) at 620 nm using a SpectraMax M4 multimode microplate reader (Molecular Devices, Sunnyvale, Calif.). Z′ factors were computed for each TLR/NOD-specific signals. Hits were defined as signals >4σ (in-plate standard deviations for test compounds above negative control means), were deconvoluted in full dose-response assays in human TLR-2/-3/-4/-5/-7/-8/-9 and NOD-1/NOD-2-specific reporter cells in liquid handler-assisted assay formats as described previously. Example 6: Murine knockout cell-lines: The following reagents were obtained through BEI Resources, NIAID, NIH: the microglial cell line derived from MAL/MyD88 double knockout Mice (NR-9904), and the macrophage cell line derived from TRIF/TRAM knockout mice (NR-9568). Example 7: Human NOD1/2-specific reporter gene assays (NF-κB induction), and TLR-2/-3/-4/-5/-7/-8/-9/STING/ISG counter-screens: The induction of NF-κB was quantified using human TLR-2/-3/-4/-5/-7/-8/-9/NOD-1/NOD-2/STING/ISG-specific, rapid-throughput, liquid handler-assisted reporter gene assays as previously described by us (Wu, W. et al. J. Med. Chem. 2010, 53, 3198-3213; Shukla, N. M. et al. J. Med. Chem. 2010, 53, 4450-4465; Agnihotri, G. et al. J. Med. Chem. 2011, 54, 1490-1510 and Ukani, R. et al. Bioorg. Med. Chem. Lett. 2012, 22, 293-295). […]

human NOD2 = target: T1, human NOD2 (Homo sapiens, UniProt Q9HC29); test: human NOD2 specific reporter gene assay (NF-κB induction); details: for hNOD2-agonistic activity (in words): human NOD2 reporter gene assay; for EC50: human NOD2 specific reporter gene assay, arithmetic mean of quadruplicate samples, NA* indicates inactive under the tested conditions, read-out: hNOD2 Agonistic Activity (μM), EC50
T1 construct: host or cells: HEK293
T1 sequence (Q9HC29 whole entry): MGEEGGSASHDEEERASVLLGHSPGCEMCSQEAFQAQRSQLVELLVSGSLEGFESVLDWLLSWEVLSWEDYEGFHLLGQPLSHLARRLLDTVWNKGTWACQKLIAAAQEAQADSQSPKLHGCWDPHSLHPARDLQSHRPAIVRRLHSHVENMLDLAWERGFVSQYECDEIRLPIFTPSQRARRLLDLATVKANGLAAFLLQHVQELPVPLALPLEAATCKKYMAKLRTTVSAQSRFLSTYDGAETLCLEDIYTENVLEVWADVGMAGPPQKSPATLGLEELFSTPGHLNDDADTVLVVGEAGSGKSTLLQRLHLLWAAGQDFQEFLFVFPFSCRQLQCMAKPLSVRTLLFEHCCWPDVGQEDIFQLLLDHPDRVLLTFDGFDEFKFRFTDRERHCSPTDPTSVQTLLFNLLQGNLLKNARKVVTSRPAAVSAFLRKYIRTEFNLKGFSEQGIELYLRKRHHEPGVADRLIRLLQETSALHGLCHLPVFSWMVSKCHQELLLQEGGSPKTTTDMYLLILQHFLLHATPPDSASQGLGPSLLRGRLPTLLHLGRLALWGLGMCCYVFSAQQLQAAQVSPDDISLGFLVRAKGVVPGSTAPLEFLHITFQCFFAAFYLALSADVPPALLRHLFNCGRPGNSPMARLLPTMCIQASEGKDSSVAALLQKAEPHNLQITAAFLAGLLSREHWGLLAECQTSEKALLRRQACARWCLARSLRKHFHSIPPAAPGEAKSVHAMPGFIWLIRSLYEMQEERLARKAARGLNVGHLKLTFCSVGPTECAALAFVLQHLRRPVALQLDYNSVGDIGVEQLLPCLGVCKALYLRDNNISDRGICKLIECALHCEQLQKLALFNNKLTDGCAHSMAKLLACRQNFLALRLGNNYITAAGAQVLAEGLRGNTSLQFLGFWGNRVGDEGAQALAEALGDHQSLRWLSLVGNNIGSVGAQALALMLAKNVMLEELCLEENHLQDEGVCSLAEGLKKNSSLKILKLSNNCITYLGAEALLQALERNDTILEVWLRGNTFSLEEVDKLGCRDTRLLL
Procedure: as §1, with “293-295). HEK293 cells stably co-transfected with the appropriate hTLR and secreted alkaline phosphatase (sAP) were maintained in HEK-Blue™ Selection medium. Stable expression of secreted alkaline phosphatase (sAP) under control of NF-κB/AP-1/IRF promoters is inducible by appropriate innate immune stimuli, and extracellular sAP in the supernatant is proportional to NF-κB/IRF induction. Reporter cells were incubated at a density of ˜10^5 cells/ml in a volume of 80 μl/well, in 384-well, flat-bottomed, cell culture-treated microtiter plates in the presence of graded concentrations of stimuli. sAP was assayed spectrophotometrically using an alkaline phosphatase-specific chromogen (present in HEK-detection medium as supplied by InvivoGen) at 620 nm. Example 8: Multiplexed immunoassays for human cytokines: Fresh human peripheral blood mononuclear cells (hPBMC) were isolated from human blood obtained by venipuncture in Cell Preparation Tubes (CPT, Beckton-Dickinson) with informed consent and as per guidelines approved by the University of Minnesota Human Subjects Experimentation Committee. Aliquots of PBMCs or THP-1 cells (10^5 cells in 100 μL/well) were stimulated for 16 h with graded concentrations of test compounds.” for “293-295).”

[2] = tested on: microglial cell line derived from MAL/MyD88 double knockout Mice (NR-9904); test: Cytokine/chemokine induction in MAL/MyD88 double-knockout cell line; details: MAL/MyD88 double-knockout murine cell line
Procedure: (§2) Cytokine induction by 7e and 7f was examined in murine-derived cell lines. […] The absence of activity was not due to extensive plasma protein binding by re-examining under near-serum-free conditions.
(§3) Example 5: High-throughput screens in porcine blood: Curated compound collections were obtained from the Institute for Therapeutics Discovery & Development at the University of Minnesota. Compound transfers from source (80 nL of 10 mM stocks) to assay plates were performed using an Echo 550 acoustic liquid handler (Labcyte, Sunnyvale, Calif.). For most libraries, a target final concentration of 10 μM of compound (in a final volume of 80 μL for the assay described below) was achieved. Compound plates were hermetically sealed and stored at −80° C. until used. Fresh, heparin-anticoagulated porcine blood from healthy animals were obtained under USDA supervision from Midwest Research Swine, LLC (Glencoe, Minn.). 80 μL of hematocrit-enriched porcine blood (low-speed centrifugation, followed by resuspension in DMEM supplemented with 10% fetal bovine serum) was added to compound plates and incubated for 15 h. […] NF-κB translocation was assayed spectrophotometrically using an alkaline phosphatase-specific chromogen (present in HEK-detection medium as supplied by InvivoGen) at 620 nm using a SpectraMax M4 multimode microplate reader (Molecular Devices, Sunnyvale, Calif.). […] Example 7: Human NOD1/2-specific reporter gene assays (NF-κB induction), and TLR-2/-3/-4/-5/-7/-8/-9/STING/ISG counter-screens: The induction of NF-κB was quantified using human TLR-2/-3/-4/-5/-7/-8/-9/NOD-1/NOD-2/STING/ISG-specific, rapid-throughput, liquid handler-assisted reporter gene assays as previously described by us (Wu, W. et al. J. Med. Chem. 2010, 53, 3198-3213; Shukla, N. M. et al. J. Med. Chem. 2010, 53, 4450-4465; Agnihotri, G. et al. J. Med. Chem. 2011, 54, 1490-1510 and Ukani, R. et al. Bioorg. Med. Chem. Lett. 2012, 22, 293-295). […]

[3] = tested on: RAW264.7 murine macrophages; test: Cytokine/chemokine induction in wild-type RAW264.7 murine macrophages (multiplexed immunoassay); details: wild-type RAW264.7 murine macrophage cell line
Procedure: as §2, §3

[4] = tested on: macrophage cell line derived from TRIF/TRAM knockout mice (NR-9568); test: Cytokine/chemokine induction in TRIF/TRAM double-knockout cell line; details: TRIF/TRAM double-knockout murine cell line
Procedure: as §2, §3

| hNOD2-agonistic activity (in words) (human NOD2) | EC50 (human NOD2) | Compound | also measured |
| --- | --- | --- | --- |
| – | – | CCOC(=O)c1cc(-n2cnc3ccccc32)cs1 [Compound 1, Ethyl 4-(1H-benzo[d]imidazol-1-yl)thiophene-2-carboxylate] | induction of cytokines and chemokines (human whole blood): None of the small molecules (including 1, as well as the optimized, equipotent analogues 7e and 7f) showed any activity; induction of chemokines and cytokines [1]: None of the small molecules (including 1, as well as the optimized, equipotent analogues 7e and 7f) showed any activity |
| devoid of activity | – | NC(=O)c1cc(-n2cnc3ccccc32)c[nH]1 [Compound 3d, 4-(1H-Benzo[d]imidazol-1-yl)-1H-pyrrole-2-carboxamide] | – |
| – | – | CCCCOC(=O)[C@@H](CCC(N)=O)NC(=O)[C@H](C)NC(=O)[C@@H](C)O[C@H]1[C@H](O)[C@@H](CO)OC(O)[C@@H]1NC(C)=O (stereo partly drawn) [murabutide, N-Acetyl-muramyl-LAlanyl-D-Glutamin-n-butyl-ester, reference compound] | induction of cytokines and chemokines (human whole blood): induced significant levels of cytokines and chemokines; cytokine and chemokine induction [2]: abrogation of responsiveness; induction of chemokines and cytokines [1]: induced significant levels of cytokines and chemokines; induction of chemokines and proinflammatory cytokines [3]: potently immunostimulatory; also recorded: induction of chemokines and cytokines; cytokine and chemokine induction [4]: abrogation of responsiveness |
| devoid of activity | – | NC(=O)c1csc(-n2cnc3ccccc32)n1 [Compound 3h, 2-(1H-Benzo[d]imidazol-1-yl)thiazole-4-carboxamide] | – |
| weakly active | 4.08 µM | CCCCc1nc2c(N)nccc2n1-c1csc(C(N)=O)c1 [Compound 19b, 4-(4-Amino-2-butyl-1H-imidazo[4,5-c]pyridin-1-yl)thiophene-2-carboxamide] | – |
| inactive | – | O=C(NO)c1cc(-n2cnc3ccccc32)cs1 [Compound 2c, 4-(1H-Benzo[d]imidazol-1-yl)-N-hydroxythiophene-2-carboxamide] | – |
| lower potency than the hit compound | 15.7 µM | Cc1nc2ccccc2n1-c1csc(C(N)=O)c1 [Compound 7a, 4-(2-Methyl-1H-benzo[d]imidazol-1-yl)thiophene-2-carboxamide] | – |

| Compound | hNOD2-agonistic activity (in words) (human NOD2) | EC50 (human NOD2) | also measured |
| --- | --- | --- | --- |
| C=C(C)CCc1nc2ccccc2n1-c1csc(C(N)=O)c1 [Compound 7n, 4-(2-(3-Methylbut-3-en-1-yl)-1H-benzo[d]imidazol-1-yl)thiophene-2-carboxamide] | potencies very similar to the butyl analogue (7d) | 3.24 µM | – |

Source: patent publication US11465998B2, “Therapeutic compounds and methods of use thereof” (Regents of the University of Minnesota, priority 2019, dated 2022)
